Source: PMC5442318, “Hundreds of dual-stage antimalarial molecules discovered by a functional gametocyte screen” (Nature Communications, 2017)
Where two headings read alike, the source gives them in different places.

How the values were obtained:
[1] = test system: P. falciparum stage V female gametocytes; experiment: P. falciparum female gametocyte activation assay (Pf FGAA), 24 h or 48 h preincubation, Pfs25 expression readout; format: cell-based, Plasmodium falciparum NF54; details: mean, read-out: Gametocytes mean Pf FGAA IC50
In short: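 Purified stage V gametocytes from P. falciparum NF54 gametocyte cultures were exposed to compounds for 24 h or 48 h at 37 °C under 3% O2/5% CO2, then activated by temperature drop plus xanthurenic acid. Activated females were stained with Cy3-anti-Pfs25 (0.5 μg ml^−1) for 24 h at 26 °C and counted by high-content imaging; pIC50 by nonlinear regression.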

[2] = test system: P. falciparum asexual blood stages; details: read-out: Pf Asexual blood stages XC50, cited from earlier work
[3] = test system: P. falciparum stages IV–V gametocytes; experiment: Gametocytocidal ATP-depletion assay (gametocyte ATP bioluminescence); format: cell-based, Plasmodium falciparum
In short: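 Purified stage IV–V gametocytes (12,500/well) incubated with compound for 48 h at 37 °C under 3% O2/5% CO2. ATP measured by BacTiter-Glo luminescence as a viability surrogate; hits tested at 2 μM single concentration.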

HepG2 cells = experiment: HepG2 cytotoxicity assay; format: cell-based
In short: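 Post-incubation CellTiter-Glo luminescence; 30 min RT equilibration, 10 min RT stabilization before reading.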

[4] = P. falciparum female gametocytes
[5] = TCAMS asexual blood stage data, ref 1 (Gamo, F. J. et al., Nature 465, 305-310, 2010)
[6] = TCAMS data, ref 1 (Gamo et al., 2010)
[7] = P. falciparum female gametocyte activation assay

SMILES: COc1ccc(CNC2Cc3ccccc3C2)cc1-c1ccc(S(=O)(=O)NCCN2CCCC2)s1.O=C(O)C(F)(F)F [TCMDC-132258]
- IC50 [1, 4]: 1390 nM
- IC50 [2, 5]: 190 nM
- Gametocytes mean ATP inhibition at 2µM [3]: 59.91%
- HepG2 cells mean TOX50 (HepG2 cells; HepG2 cells; mean): 5.31 µM

SMILES: COc1ccc2ccccc2c1CCCCN1CCN(CC(c2ccc(F)cc2)N2CCC2)CC1.O=C(O)C(F)(F)F (stereo not shown) [TCMDC-135867]
- IC50 [1]: 5860 nM
- IC50 [2, 6]: 760 nM
- Gametocytes mean ATP inhibition at 2µM (%) [3]: -0.41%
- HepG2 cells mean TOX50 (HepG2 cells; mean): 4.37 µM

SMILES: CCCCN(CCCC)CCCCNc1c2ccc(Cl)cc2nc2ccc(OC)cc12.Cl [TCMDC-137460]
- IC50 [1]: 1970 nM
- IC50 [2, 6]: 180 nM
- Gametocytes mean ATP inhibition at 2µM (%) [3]: 11.49%
- HepG2 cells mean TOX50 (HepG2 cells; mean): 4.73 µM

SMILES: COc1ccc(CCNCCCCCCNCCc2ccc(Cl)cc2)c(Cl)c1OC.Cl [TCMDC-131272]
- IC50 [1, 4]: 830 nM
- IC50 [2, 5]: 820 nM
- Gametocytes mean ATP inhibition at 2µM [3]: 24.24%
- HepG2 cells mean TOX50 (HepG2 cells; HepG2 cells; mean): 5.54 µM

SMILES: CC(C)NCc1ccc(OCc2cccc(COc3ccc(CNC(C)C)cc3I)c2)c(I)c1.Cl [TCMDC-137259]
- IC50 [1]: 1320 nM
- IC50 [2, 6]: 90 nM
- Gametocytes mean ATP inhibition at 2µM (%) [3]: 81.19%
- HepG2 cells mean TOX50 (HepG2 cells; mean): 1.64 µM

SMILES: CCCOc1ccc2ccccc2c1CNCCCCCCNCc1c(OCCC)ccc2ccccc12.CS(=O)(=O)O [TCMDC-137966]
- IC50 [1]: 1030 nM
- IC50 [2, 6]: 790 nM
- Gametocytes mean ATP inhibition at 2µM (%) [3]: 42.35%
- HepG2 cells mean TOX50 (HepG2 cells; mean): 2.00 µM

SMILES: OCCN1CCN(c2ccc(Nc3ccnc4cc5ccccc5cc34)cc2)CC1 [TCMDC-123915]
- IC50 [1, 4]: 3340 nM
- IC50 [2, 5]: 40 nM
- Gametocytes mean ATP inhibition at 2µM [3]: 2.56%
- HepG2 cells mean TOX50 (HepG2 cells; HepG2 cells; mean): 5.43 µM

SMILES: Cc1c(Cl)cccc1N=C(S)NN=Cc1ccccn1 [TCMDC-125487]
- IC50 [1, 4]: 28 nM
- IC50 [2, 5]: 600 nM
- Gametocytes mean ATP inhibition at 2µM [3]: 74.71%
- HepG2 cells mean TOX50 (HepG2 cells; HepG2 cells; mean): >100 µM

SMILES: Clc1cccc(C23N=C(Nc4nc5ccccc5[nH]4)NC2(c2ccccc2)NC(Nc2nc4ccccc4[nH]2)=N3)c1 (stereo not shown) [TCMDC-139089]
- IC50 [1]: 150 nM
- IC50 [2, 6]: 520 nM
- Gametocytes mean ATP inhibition at 2µM (%) [3]: 71.66%
- HepG2 cells mean TOX50 (HepG2 cells; mean): 42.76 µM

SMILES: CN1CCCC1CCNc1ncc2c(-c3ccc(NC(=O)Nc4cc(C(F)(F)F)ccc4F)c(F)c3)nn(C)c2n1.O=C(O)C(F)(F)F (stereo not shown) [TCMDC-141610]
- IC50 [1, 7]: 1470 nM
- IC50 [2, 5]: 290 nM
- Gametocytes mean ATP inhibition at 2µM [3]: -9.33%
- HepG2 cells mean TOX50 (HepG2 cells; mean; HepG2 cells): 4.62 µM

SMILES: Nc1ccc2[nH]cc(C3CCN(CC4CCN(C(=O)/C=C/c5ccc(Cl)c(Cl)c5)CC4)CC3)c2n1 [TCMDC-140061]
- IC50 [1]: 1770 nM
- IC50 [2, 6]: 700 nM
- Gametocytes mean ATP inhibition at 2µM (%) [3]: -11.61%
- HepG2 cells mean TOX50 (HepG2 cells; mean): 5.89 µM

SMILES: Cl.N=C(NCCCCC1CCCCC1)c1cccc(C(=N)NCCCCC2CCCCC2)n1 [TCMDC-137452]
- IC50 [1]: 1050 nM
- IC50 [2, 6]: 400 nM
- Gametocytes mean ATP inhibition at 2µM (%) [3]: 95.86%
- HepG2 cells mean TOX50 (HepG2 cells; mean): 1.82 µM

SMILES: COc1ccc(CCNCCCCNCCc2ccc(OC)c3ccccc23)c2ccccc12.CS(=O)(=O)O [TCMDC-137961]
- IC50 [1]: 480 nM
- IC50 [2, 6]: 450 nM
- Gametocytes mean ATP inhibition at 2µM (%) [3]: 90.63%
- HepG2 cells mean TOX50 (HepG2 cells; mean): 2.14 µM

SMILES: Br.Oc1ccc(CCNCCCCCCNCCc2ccc(Cl)c3ccccc23)cc1O [TCMDC-131271]
- IC50 [1, 4]: 2380 nM
- IC50 [2, 5]: 720 nM
- Gametocytes mean ATP inhibition at 2µM [3]: 14.57%
- HepG2 cells mean TOX50 (HepG2 cells; HepG2 cells; mean): 11.22 µM

SMILES: Cl.Nc1c(I)cc(C(=O)Nc2ccc3nc4c(c(N)c3c2)CCCC4)cc1I [TCMDC-142289]
- IC50 [1, 7]: 780 nM
- IC50 [2, 5]: 140 nM
- Gametocytes mean ATP inhibition at 2µM [3]: 70.94%
- HepG2 cells mean TOX50 (HepG2 cells; mean; HepG2 cells): 4.52 µM

SMILES: c1ccc2sc(Sc3ncnc4sccc34)nc2c1 [TCMDC-125539]
- IC50 [1, 4]: 140 nM
- IC50 [2, 5]: 730 nM
- Gametocytes mean ATP inhibition at 2µM [3]: 69.68%
- HepG2 cells mean TOX50 (HepG2 cells; HepG2 cells; mean): >100 µM

SMILES: CCCOc1c(CCNCCCCNCCc2ccc3ccccc3c2OCCC)ccc2ccccc12.CS(=O)(=O)O [TCMDC-137950]
- IC50 [1]: 640 nM
- IC50 [2, 6]: 480 nM
- Gametocytes mean ATP inhibition at 2µM (%) [3]: 95.44%
- HepG2 cells mean TOX50 (HepG2 cells; mean): 1.72 µM

SMILES: COc1cccc(C23N=C(Nc4nc5ccccc5[nH]4)NC2(c2cccc(OC)c2)NC(Nc2nc4ccccc4[nH]2)=N3)c1 (stereo not shown) [TCMDC-139087]
- IC50 [1]: 90 nM
- IC50 [2, 6]: 160 nM
- Gametocytes mean ATP inhibition at 2µM (%) [3]: 64.05%
- HepG2 cells mean TOX50 (HepG2 cells; mean): 40.74 µM

SMILES: CC(Cc1ccc(NC(=O)c2ccc(CNCCCCc3ccccc3)cc2)cc1)NCCc1cccc(Cl)c1.Cl (stereo not shown) [TCMDC-139866]
- IC50 [1]: 1120 nM
- IC50 [2, 6]: 330 nM
- Gametocytes mean ATP inhibition at 2µM (%) [3]: 18.31%
- HepG2 cells mean TOX50 (HepG2 cells; mean): 1.97 µM

SMILES: COc1cc2c(OC)cccc2cc1CNCCCCCCNCc1cc2cccc(OC)c2cc1OC.CS(=O)(=O)O [TCMDC-137945]
- IC50 [1]: 1820 nM
- IC50 [2, 6]: 820 nM
- Gametocytes mean ATP inhibition at 2µM (%) [3]: -15.51%
- HepG2 cells mean TOX50 (HepG2 cells; mean): 4.90 µM

SMILES: COc1ccc2nc3cc(Cl)ccc3c(N)c2c1.Cl [TCMDC-125835]
- IC50 [1, 4]: 670 nM
- IC50 [2, 5]: 170 nM
- Gametocytes mean ATP inhibition at 2µM [3]: 101.44%
- HepG2 cells mean TOX50 (HepG2 cells; HepG2 cells; mean): 1.57 µM

SMILES: COc1cc2nc(N3CCC(CNCc4ccc(-c5ccc(C(F)(F)F)cc5)cc4)CC3)nc(N)c2cc1OC [TCMDC-138757]
- IC50 [1]: 100 nM
- IC50 [2, 6]: 90 nM
- Gametocytes mean ATP inhibition at 2µM (%) [3]: 99.68%
- HepG2 cells mean TOX50 (HepG2 cells; mean): 1.43 µM

SMILES: C#CCOc1ccc2ccccc2c1CNCCCCCCNCc1c(OCC#C)ccc2ccccc12.CS(=O)(=O)O [TCMDC-137838]
- IC50 [1]: 1050 nM
- IC50 [2, 6]: 780 nM
- Gametocytes mean ATP inhibition at 2µM (%) [3]: 77.84%
- HepG2 cells mean TOX50 (HepG2 cells; mean): 2.92 µM

SMILES: CN(CCCCN)Cc1ccc(-c2ccc(Cl)cc2)cc1 [TCMDC-140123]
- IC50 [1]: 1580 nM
- IC50 [2, 6]: 880 nM
- Gametocytes mean ATP inhibition at 2µM (%) [3]: 17.75%
- HepG2 cells mean TOX50 (HepG2 cells; mean): 3.55 µM

SMILES: Cc1cc(F)ccc1-c1nc(NCCCNCCc2ccccc2)nc2c1ccc(=O)n2-c1c(F)cccc1F.O=C(O)C(F)(F)F [TCMDC-141804]
- IC50 [1, 7]: 3610 nM
- IC50 [2, 5]: 190 nM
- Gametocytes mean ATP inhibition at 2µM [3]: 82.21%
- HepG2 cells mean TOX50 (HepG2 cells; mean; HepG2 cells): 12.59 µM

SMILES: COc1c(CNCCCCCCNCc2cc(Cl)c3ccccc3c2OC)cc(Cl)c2ccccc12.CS(=O)(=O)O [TCMDC-137958]
- IC50 [1]: 1180 nM
- IC50 [2, 6]: 940 nM
- Gametocytes mean ATP inhibition at 2µM (%) [3]: -6.18%
- HepG2 cells mean TOX50 (HepG2 cells; mean): 4.62 µM

SMILES: FC(F)(F)c1ccc2[nH]c(-c3cccc(-c4ccc(CNCCN5CCNCC5)cc4)c3)nc2c1.O=C(O)C(F)(F)F [TCMDC-132872]
- IC50 [1, 4]: 1790 nM
- IC50 [2, 5]: 860 nM
- Gametocytes mean ATP inhibition at 2µM [3]: -15.41%
- HepG2 cells mean TOX50 (HepG2 cells; HepG2 cells; mean): 8.81 µM

SMILES: CC(C)Cn1cc(C2CCN(CCN3CCC(CNC(=O)c4ccc(-c5ccc(C(F)(F)F)cc5)cc4)CC3)CC2)c2ccccc21 [TCMDC-138852]
- IC50 [1]: 880 nM
- IC50 [2, 6]: 750 nM
- Gametocytes mean ATP inhibition at 2µM (%) [3]: 30.37%
- HepG2 cells mean TOX50 (HepG2 cells; mean): 4.80 µM

SMILES: CN1CCN(CCNc2c3ccccc3nc3c2ccc2ccccc23)CC1.Cl [TCMDC-137723]
- IC50 [1]: 3490 nM
- IC50 [2, 6]: 610 nM
- Gametocytes mean ATP inhibition at 2µM (%) [3]: 67.71%
- HepG2 cells mean TOX50 (HepG2 cells; mean): 5.07 µM

SMILES: Cc1sc2ncnc(Sc3nnc(N)s3)c2c1C [TCMDC-124542]
- IC50 [1, 4]: 770 nM
- IC50 [2, 5]: 400 nM
- Gametocytes mean ATP inhibition at 2µM [3]: 30.31%
- HepG2 cells mean TOX50 (HepG2 cells; HepG2 cells; mean): 36.31 µM

SMILES: c1ccc(-c2nc(NC3CCCCC3)cc(C3CC3)n2)nc1 [TCMDC-125825]
- IC50 [1, 4]: 160 nM
- IC50 [2, 5]: 730 nM
- Gametocytes mean ATP inhibition at 2µM [3]: 85.03%
- HepG2 cells mean TOX50 (HepG2 cells; HepG2 cells; mean): 48.99 µM
